The source of these data is PubChem BioAssay AID328 (DTP/NCI, 2004).

Several values for one entry are separate records, joined by “and”; a condition that tells them apart may be missing. Identical values can stand only once. Toxic doses and inconclusive results are not listed.

This experiment concerns BDF1 mice, P388 leukemia ip, median survival T/C. Briefly: NCI In Vivo Anticancer Drug Screen. Data for tumor model P388 Leukemia (intraperitoneal) in B6D2F1 (BDF1) mice. The note with it: endpoint: median survival time, higher = longer survival. The procedure: The antitumor activity of compounds was measured in mice bearing transplantable tumors. Survival or tumor size were measured and the results are expressed as the measurement made in the treated group (T) divided by the measurement made in the vehicle treated control group (C). The tumor model used in this assay is P388 Leukemia (intraperitoneal) in B6D2F1 (BDF1) mice

Setting [1] is: dose: 100.0 mg/kg/injection, schedule: Q04DX003 (ip), vehicle: water.
Setting [2] is: dose: 200.0 mg/kg/injection, schedule: Q04DX003 (ip), vehicle: water.
Setting [3] is: dose: 25.0 mg/kg/injection, schedule: Q01DX009 (ip), vehicle: saline with Tween-80.
Where [4] appears, read: dose: 50.0 mg/kg/injection, schedule: Q01DX009 (ip), vehicle: saline with Tween-80.
The mark [5] stands for this setting: dose: 100.0 mg/kg/injection, schedule: Q01DX009 (ip), vehicle: saline with Tween-80.
The mark [6] stands for this setting: dose: 200.0 mg/kg/injection, schedule: Q01DX009 (ip), vehicle: saline with Tween-80.
[7] abbreviates: dose: 25.0 mg/kg/injection, schedule: Q04DX003 (ip), vehicle: saline.
The mark [8] stands for this setting: dose: 50.0 mg/kg/injection, schedule: Q04DX003 (ip), vehicle: saline.
The mark [9] stands for this setting: dose: 100.0 mg/kg/injection, schedule: Q04DX003 (ip), vehicle: saline.
Setting [10] is: dose: 200.0 mg/kg/injection, schedule: Q04DX003 (ip), vehicle: saline.
Setting [11] is: dose: 100.0 mg/kg/injection, schedule: Q04DX003 (ip), vehicle: saline sonified.
Setting [12] is: dose: 200.0 mg/kg/injection, schedule: Q04DX003 (ip), vehicle: saline sonified.
The mark [13] stands for this setting: dose: 400.0 mg/kg/injection, schedule: Q04DX003 (ip), vehicle: saline sonified.

With `CCCC1CC[N-]CC1.CCCC1CC[N-]CC1.[Cl][Cu][Cl]`, the T/C (dose: 2.0 mg/kg/injection, schedule: Q01DX009 (ip), vehicle: saline) was 89 % of control; the T/C (dose: 4.0 mg/kg/injection, schedule: Q01DX009 (ip), vehicle: saline) is 100 % of control; the T/C (dose: 8.0 mg/kg/injection, schedule: Q01DX009 (ip), vehicle: saline) was 100 % of control.

In the case of `CC1CN(Cc2ccccc2)CC(C)N1` (stereo not drawn), the T/C reads like this: (dose: 50.0 mg/kg/injection, schedule: Q04DX003 (ip), vehicle: water) 106 % of control; under setting [1], 104 % of control; under setting [2], 92 % of control.

As to `CN(C(=O)/C=C/C(=O)O)c1ccccc1`, the T/C under setting [3] is 109 % of control; the T/C under setting [4] was 109 % of control; the T/C under setting [5] was 109 % of control; the T/C under setting [6] was 113 % of control; the T/C (dose: 400.0 mg/kg/injection, schedule: Q01DX009 (ip), vehicle: saline with Tween-80) was 100 % of control.

As for `Cc1ccc(S(=O)(=O)OCC2C3CCCC2C3)cc1` (stereo not drawn), the T/C under setting [4] is 101 % of control, the T/C under setting [5] is 100 % of control and the T/C under setting [6] is 96 % of control.

As to `CCC([NH-])=O.CCC([NH-])=O.[Pt+2]`, the T/C runs as follows: under setting [1], 101 % of control; under setting [2], 101 % of control; (dose: 400.0 mg/kg/injection, schedule: Q04DX003 (ip), vehicle: water) 101 % of control.

Take `CCOC(=O)C(Cc1ccc(N(CCCl)CCCl)cc1)NC(=O)C(Cc1ccccc1)NC=O` (stereo not drawn): the T/C is 118 % of control (dose: 12.5 mg/kg/injection, schedule: Q04DX003 (ip), vehicle: saline with Tween-80); 168 % of control under setting [4]; 172 % of control (dose: 50.0 mg/kg/injection, schedule: Q04DX003 (ip), vehicle: saline with Tween-80); 90 % of control under setting [5]; 227 % of control (dose: 132.0 mg/kg/injection, schedule: Q04DX003 (ip), vehicle: saline with Tween-80); 200 % of control (dose: 133.0 mg/kg/injection, schedule: Q04DX003 (ip), vehicle: saline with Tween-80). Also, the T/C (dose: 200.0 mg/kg/injection, schedule: Q04DX003 (ip), vehicle: saline with Tween-80) is 254 % of control and 215 % of control.

As to `OC(Cc1cc(CC(O)(C(F)(F)F)C(F)(F)F)ncn1)(C(F)(F)F)C(F)(F)F`, the T/C under setting [5] was 95 % of control and the T/C under setting [6] was 90 % of control.

As for `COc1ccc(NCCN(C)C)c2c(=O)c3ccccc3sc12`, the T/C under setting [4] was 97 % of control, the T/C under setting [5] was 101 % of control and the T/C under setting [6] was 108 % of control.

On to `COCC(O)Cn1ccnc1[N+](=O)[O-]` (stereo not drawn), for which the T/C was 104 % of control (dose: 540.0 mg/kg/injection, schedule: Q01DX001 (ip), vehicle: saline); 92 % of control and 101 % of control (dose: 600.0 mg/kg/injection, schedule: Q01DX001 (ip), vehicle: saline); 107 % of control (dose: 900.0 mg/kg/injection, schedule: Q01DX001 (ip), vehicle: saline); 99 % of control (dose: 1000.0 mg/kg/injection, schedule: Q01DX001 (ip), vehicle: saline); 104 % of control (dose: 1500.0 mg/kg/injection, schedule: Q01DX001 (ip), vehicle: saline).

For the compound `COc1ccc(Cc2c3ccccc3cc[n+]2C)cc1Oc1ccc(Cc2c3ccccc3cc[n+]2C)cc1`, the T/C runs as follows: (dose: 0.78 mg/kg/injection, schedule: Q01DX009 (ip), vehicle: saline) 100 % of control; (dose: 1.56 mg/kg/injection, schedule: Q01DX009 (ip), vehicle: saline) 101 % of control.

Consider `Nc1nc(=O)n(C2OC(CO)C(O)C2O)c2nc(I)[nH]c12` (stereo not drawn), for which the T/C was 97 % of control (dose: 12.5 mg/kg/injection, schedule: Q04DX003 (ip), vehicle: saline); 97 % of control under setting [7]; 105 % of control under setting [8]; 108 % of control under setting [9]; 111 % of control under setting [10].

On to `C[N+](C)(C)C12CCCCCC1SC2` (stereo not drawn), for which the T/C was 106 % of control under setting [7] and 101 % of control under setting [8].

Consider `C[C@@]1(O)CCCC[C@H]1O`, for which the T/C runs as follows: (dose: 100.0 mg/kg/injection, schedule: Q01DX009 (ip), vehicle: saline) 100 % of control; under setting [9], 110 % of control; (dose: 200.0 mg/kg/injection, schedule: Q01DX009 (ip), vehicle: saline) 100 % of control; under setting [10], 100 % of control; (dose: 400.0 mg/kg/injection, schedule: Q04DX003 (ip), vehicle: saline) 100 % of control.

Turning to `O=C1CCSC(=O)N1SC(Cl)(Cl)Cl`, the T/C is 120 % of control (dose: 12.0 mg/kg/injection, schedule: Q01DX009 (ip), vehicle: saline with Tween-80); 110 % of control under setting [3]; 100 % of control under setting [4].

As to `O=C(C=C(C(F)(F)F)C(F)(F)F)c1ccc(Cl)cc1`, the T/C runs as follows: (dose: 6.25 mg/kg/injection, schedule: Q01DX009 (ip), vehicle: saline with Tween-80) 100 % of control; (dose: 12.5 mg/kg/injection, schedule: Q01DX009 (ip), vehicle: saline with Tween-80) 100 % of control; under setting [3], 118 % of control.

`COc1ccc(Nc2nc(N)nc(CNc3ccc(Cl)cc3)n2)cc1`: the T/C is, setting by setting: under setting [11], 100 % of control; under setting [12], 100 % of control; under setting [13], 110 % of control.

With `COc1cc(Br)c(CCC#N)cc1OC`, the T/C is 91 % of control under setting [4], 110 % of control under setting [5] and 92 % of control under setting [6].

`COC(=O)Cc1c[nH]c(=O)[nH]c1=O`: the T/C (dose: 50.0 mg/kg/injection, schedule: Q01DX009 (ip), vehicle: water) was 117 % of control; the T/C (dose: 100.0 mg/kg/injection, schedule: Q01DX009 (ip), vehicle: water) was 102 % of control; the T/C under setting [1] is 99 % of control; the T/C (dose: 200.0 mg/kg/injection, schedule: Q01DX009 (ip), vehicle: water) is 96 % of control; the T/C under setting [2] was 94 % of control.

`O=C(O)CCC(=O)CCl`: the T/C (dose: 12.0 mg/kg/injection, schedule: Q01DX009 (ip), vehicle: saline) is 120 % of control.

For `Brc1ncnc2nc[nH]c12`, the T/C runs as follows: (dose: 100.0 mg/kg/injection, schedule: Q01DX009 (ip), vehicle: saline sonified) 105 % of control; under setting [11], 100 % of control; (dose: 200.0 mg/kg/injection, schedule: Q01DX009 (ip), vehicle: saline sonified) 111 % of control; under setting [12], 105 % of control; (dose: 400.0 mg/kg/injection, schedule: Q01DX009 (ip), vehicle: saline sonified) 116 % of control; under setting [13], 100 % of control.

Regarding `Cc1cc(C)c2cc3cccc[n+]3cc2c1`, the T/C (dose: 4.0 mg/kg/injection, schedule: Q01DX010 (ip), vehicle: carboxymethylcellulose (CMC)) was 115 % of control.

On to `C=CC(=O)[O][Pb]([CH3])([CH3])[CH3]`, for which the T/C runs as follows: (dose: 0.75 mg/kg/injection, schedule: Q01DX009 (ip), vehicle: saline) 98 % of control; (dose: 1.5 mg/kg/injection, schedule: Q01DX009 (ip), vehicle: saline) 96 % of control.

Consider `CN1/C(=C/C=C(/N=C(C#N)C#N)c2ccccc2)C(C)(C)c2ccccc21`, for which the T/C reads like this: under setting [4], 95 % of control; under setting [5], 98 % of control; under setting [6], 98 % of control.
